Laboratory results from patent publication US20230041563A1, “N-(1,3,4-OXADIAZOL-2-YL)ARYLCARBOXAMIDES OR SALTS THEREOF, PREPARATION METHODS, HERBICIDAL COMPOSITIONS AND USES THEREOF” (priority 2018, published 2023).

Columns and labels:
Sagittaria trifolia = assay: Transplanted rice safety evaluation and weed control effect evaluation in rice field; type: in vivo; conditions: Table 8, dose 60 g a.i./ha
Source text: (§1) Transplanted rice safety evaluation and weed control effect evaluation in rice field:
(§2) Rice field soil was loaded into a 1/1,000,000 ha pot. The seeds of echinochloa crusgali, scirpus juncoides, Bidens tripartita, Sagittaria trifolia, Monochoria vaginalis and Leptochloa chinensis were sowed and gently covered with soil, then left to stand still in greenhouse in the state of 0.5-1 cm of water storage. The tuber of Sagittaria trifolia was planted in the next day or 2 days later. It was kept at 3-4 cm of water storage thereafter. The weeds were treated by dripping the WP or SC water diluents prepared according to the common preparation method of the compounds of the present invention with pipette homogeneously to achieve specified effective amount when echinochloa crusgali, scirpus juncoides, Bidens tripartita, Monochoria vaginalis and Leptochloa chinensis reached 0.5 leaf stage and Sagittaria trifolia reached the time point of primary leaf stage.
(§3) The fertility condition of echinochloa crusgali, scirpus juncoides, Bidens tripartita, Leptochloa chinensis, Sagittaria trifolia and Monochoria vaginalis 14 days after the treatment of the compound of the invention and the fertility condition of rice 21 days after the treatment of the compound of the invention respectively with the naked eye. Evaluate the weed control effect with 0-5 activity standard level. Many compounds show excellent activity and selectivity.

Echinochloa crusgali = assay: as above; type: in vivo; conditions: Table 8, dose 60 g a.i./ha
Source text: as §1, §2, §3

Leptochloa chinensis = assay: as above; type: in vivo; conditions: Table 8, dose 60 g a.i./ha
Source text: as §1, §2, §3

Monochoria vaginalis = assay: as above; type: in vivo; conditions: Table 8, dose 60 g a.i./ha
Source text: as §1, §2, §3

Setaria viridis = assay: Weeding effect in post-emergence stage (greenhouse pot spray); type: in vivo
Procedure, shortened: (§4)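 Post-emergence foliar spray on 2-3 leaf greenhouse pot plants at 15 to 500 g a.i./ha with methyl oleate emulsifiable concentrate (1.5 liter/ha) added; growth control by fresh weight after 3 weeks.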

Echinochloa crusgalli = assay: as above; type: in vivo
Procedure, shortened: as §4

Digitaria sanguinalis = assay: as above; type: in vivo
Procedure, shortened: as §4

Rice = assay: Transplanted rice safety evaluation and weed control effect evaluation in rice field; type: in vivo, rice (japonica rice/Indica rice); conditions: Table 8, dose 60 g a.i./ha
Protocol: as §1
In addition, the rice field soil that loaded into the 1/1,000,000 ha pot was leveled to keep water storage at 3-4 cm depth. The 3 leaf stage rice (japonica rice/Indica rice) was transplanted at 3 cm of transplanting depth the next day. The compound of the present invention was treated by the same way after 5 days of transplantation.
as §3

SMILES	Sagittaria trifolia (activity level) (Sagittaria trifolia)	Echinochloa crusgali (activity level) (Echinochloa crusgali)	Leptochloa chinensis (activity level) (Leptochloa chinensis)	Monochoria vaginalis (activity level) (Monochoria vaginalis)	Setaria viridis (activity level) (Setaria viridis; Table 3, dose 60 g a.i./ha)	Echinochloa crusgali (activity level) (Echinochloa crusgalli; Table 3, dose 60 g a.i./ha)	Digitaria sanguinahs (activity level) (Digitaria sanguinalis; Table 3, dose 60 g a.i./ha)	Rice (safety level) (Rice)	also measured
CCCC[S@+]([O-])c1c(C(F)(F)F)ccc(C(=O)Nc2nnc(C)o2)c1F [1-14 (R-configuration)]	5 (Level 5: growth control rate is above 85%)	5 (Level 5: growth control rate is above 85%)	5 (Level 5: growth control rate is above 85%)	5 (Level 5: growth control rate is above 85%)	5 (Level 5: growth control rate is above 85%)	5 (Level 5: growth control rate is above 85%)	5 (Level 5: growth control rate is above 85%)	0 (Level 0: growth control rate is less than 5%)	Setaria viridis (activity level) (Setaria viridis; Table 3, dose 7.5 g a.i./ha): 4 (Level 4: growth control rate is greater than or equal to 60% and less than 85%); Setaria viridis (activity level) (Setaria viridis; Table 3, dose 15 g a.i./ha): 4 (Level 4: growth control rate is greater than or equal to 60% and less than 85%); Setaria viridis (activity level) (Setaria viridis; Table 3, dose 30 g a.i./ha): 5 (Level 5: growth control rate is above 85%); Echinochloa crusgali (activity level) (Echinochloa crusgalli; Table 3, dose 7.5 g a.i./ha): 5 (Level 5: growth control rate is above 85%); Echinochloa crusgali (activity level) (Echinochloa crusgalli; Table 3, dose 15 g a.i./ha): 5 (Level 5: growth control rate is above 85%); Echinochloa crusgali (activity level) (Echinochloa crusgalli; Table 3, dose 30 g a.i./ha): 5 (Level 5: growth control rate is above 85%); Digitaria sanguinahs (activity level) (Digitaria sanguinalis; Table 3, dose 7.5 g a.i./ha): 4 (Level 4: growth control rate is greater than or equal to 60% and less than 85%); Digitaria sanguinahs (activity level) (Digitaria sanguinalis; Table 3, dose 15 g a.i./ha): 5 (Level 5: growth control rate is above 85%); Digitaria sanguinahs (activity level) (Digitaria sanguinalis; Table 3, dose 30 g a.i./ha): 5 (Level 5: growth control rate is above 85%)
Cc1nnc(NC(=O)c2ccc(C(F)(F)F)c([S@@+]([O-])CC(C)C)c2F)o1 [1-20 (R-configuration)]	5 (Level 5: growth control rate is above 85%)	5 (Level 5: growth control rate is above 85%)	5 (Level 5: growth control rate is above 85%)	5 (Level 5: growth control rate is above 85%)	–	–	–	0 (Level 0: growth control rate is less than 5%)	–
Cc1nnc(NC(=O)c2ccc(C(F)(F)F)c([S@@+]([O-])C3COC3)c2F)o1 [1-82 (R-configuration)]	5 (Level 5: growth control rate is above 85%)	5 (Level 5: growth control rate is above 85%)	5 (Level 5: growth control rate is above 85%)	5 (Level 5: growth control rate is above 85%)	–	–	–	0 (Level 0: growth control rate is less than 5%)	Setaria viridis (activity level) (Setaria viridis; Table 3, dose 125 g a.i./ha): 5 (Level 5: growth control rate is above 85%); Echinochloa crusgali (activity level) (Echinochloa crusgalli; Table 3, dose 125 g a.i./ha): 5 (Level 5: growth control rate is above 85%); Digitaria sanguinahs (activity level) (Digitaria sanguinalis; Table 3, dose 125 g a.i./ha): 5 (Level 5: growth control rate is above 85%)
Cc1nnc(NC(=O)c2ccc(C(F)(F)F)c([S@@+]([O-])CCCF)c2F)o1 [1-403 (R-configuration)]	5 (Level 5: growth control rate is above 85%)	5 (Level 5: growth control rate is above 85%)	5 (Level 5: growth control rate is above 85%)	5 (Level 5: growth control rate is above 85%)	5 (Level 5: growth control rate is above 85%)	5 (Level 5: growth control rate is above 85%)	5 (Level 5: growth control rate is above 85%)	0 (Level 0: growth control rate is less than 5%)	–
Cc1nnc(NC(=O)c2ccc(C(F)(F)F)c([S@+]([O-])CCCCl)c2F)o1 [1-414 (R-configuration)]	5 (Level 5: growth control rate is above 85%)	5 (Level 5: growth control rate is above 85%)	5 (Level 5: growth control rate is above 85%)	5 (Level 5: growth control rate is above 85%)	–	–	–	0 (Level 0: growth control rate is less than 5%)	Setaria viridis (activity level) (Setaria viridis; Table 3, dose 500 g a.i./ha): 5 (Level 5: growth control rate is above 85%); Echinochloa crusgali (activity level) (Echinochloa crusgalli; Table 3, dose 500 g a.i./ha): 5 (Level 5: growth control rate is above 85%); Digitaria sanguinahs (activity level) (Digitaria sanguinalis; Table 3, dose 500 g a.i./ha): 5 (Level 5: growth control rate is above 85%)
